What all share (details): pH (I or II) not given; 10 mM sodium phosphate buffer, 10% LB; 37° C, 24 h; mean of 3 experiments
The test system of assay [1] is P. aeruginosa 3547. Briefly: microbe, parasite or virus in culture. In kind it is cell-based, Pseudomonas aeruginosa. From the text: (§1) The method for peptide synthesis has been described in detail previously. E. coli ATCC 25922 (LB media), P. aeruginosa ATCC 15692 (NB+0.5% NaCl media), Listeria monocytogenes ATCC 3710 (LB media), Staphylococcus epidermidis ATCC 12228 (LB media), and S. aureus ATCC 29213 (TSB media) were obtained from the American Type Culture Collection (Manassas, VA, USA). Bacillus subtilis KCTC 1998 (LB media), Salmonella typhimurium KCTC 1926 (NB media), and Proteus vulgaris KCTC 2433 (NB media) were obtained from the Korean Collection for Type Cultures (Jeollabuk-do, Korea). E. coli CCARM 1238 was received from the Culture Collection of Antibiotic Resistant Microbes at Seoul Women’s University, Korea. Drug-resistant P. aeruginosa 3543, 3904, 3547, and 4007 and S. aureus 3126, 0027, 5157, 1635, 4761, 5159, 3359, 2122, 1630, 1870, 3511, 5156, and 3518 were resistant strains isolated from patients with otitis media in a Chonnam National University’s hospital.
(§2) The antibacterial activities of AMPs (melittin, clavaspirin, and its analogs) and conventional antibiotic drugs (erythromycin, gentamicin, ampicillin, and piperacidin) were determined using microdilution assays. Bacterial cells were cultured at 37° C in appropriate culture media at pH 5.5 or pH 7.4 until collection during the mid-log phase and suspended in 10 mM sodium phosphate buffer (pH 5.5 or pH 7.4) supplemented with 10% culture medium. Thereafter, 2× serial dilutions of each peptide (0.25–128 μM) or antibiotic (0.25–256 μM) were added to sterile 96-well plates, and aliquots of cell suspension (5 × 10^5 colony forming units (cfu)/mL) were seeded into each well. The samples were then incubated at 37° C for 24 h. At the end of the incubation, the minimum inhibitory concentrations (MICs) of the peptides were determined using a VERSA Max microplate reader (Molecular Devices Co., Sunnyvale, CA, USA) at a wavelength of 600 nm. […] MIC values were calculated as the mean of 3 independent experiments conducted in triplicate.

Assay [2] concerns P. aeruginosa 4007. Briefly: microbe, parasite or virus in culture. Format: cell-based, Pseudomonas aeruginosa.
Text: as §1, §2

For assay [3], the system named is P. aeruginosa 3904. Briefly: microbe, parasite or virus in culture. In kind it is cell-based, Pseudomonas aeruginosa.
Text: as §1, §2

In assay [4] the test system is P. aeruginosa 3543. The assay can be described thus: microbe, parasite or virus in culture. Format: cell-based, Pseudomonas aeruginosa.
Text: as §1, §2

In assay [5] the test system is Staphylococcus epidermidis ATCC 12228. Format: cell-based.
Text: as §1, §2

The test system of assay [6] is Listeria monocytogenes ATCC 3710. Format: cell-based.
Text: as §1, §2

Assay [7] has as its system Bacillus subtilis KCTC 1998. In kind it is cell-based.
Text: as §1, §2

Assay [8] deals with Proteus vulgaris KCTC 2433. Format: cell-based.
Text: as §1, with “Bacillus subtilis KCTC 1998 (LB media), Salmonella typhimurium KCTC 1926 (NB media), and Proteus vulgaris KCTC 2433 (NB media) were obtained from the Korean Collection for Type Cultures (Jeollabuk-do, Korea).” left out
as §2

Assay [9] concerns Salmonella typhimurium KCTC 1926. In kind it is cell-based.
Text: as §1, with “Bacillus subtilis KCTC 1998 (LB media), Salmonella typhimurium KCTC 1926 (NB media), and Proteus vulgaris KCTC 2433 (NB media) were obtained from the Korean Collection for Type Cultures (Jeollabuk-do, Korea).” left out
as §2

Assay [10] concerns S. aureus 0027. The assay can be described thus: microbe, parasite or virus in culture. In kind it is cell-based, Staphylococcus aureus.
Text: as §1, §2

In assay [11] the test system is S. aureus 2122. The assay can be described thus: microbe, parasite or virus in culture. Format: cell-based, Staphylococcus aureus.
Text: as §1, §2

Assay [12] deals with S. aureus 3126. Briefly: microbe, parasite or virus in culture. Format: cell-based, Staphylococcus aureus.
Text: as §1, §2

Assay [13] has as its system S. aureus 4761. The assay can be described thus: microbe, parasite or virus in culture. Format: cell-based, Staphylococcus aureus.
Text: as §1, §2

Assay [14] relates to S. aureus 1635. Briefly: microbe, parasite or virus in culture. In kind it is cell-based, Staphylococcus aureus.
Text: as §1, §2

The subject of assay [15] is S. aureus 5157. Briefly: microbe, parasite or virus in culture. In kind it is cell-based, Staphylococcus aureus.
Text: as §1, §2

For assay [16], the system named is S. aureus 3359. Briefly: microbe, parasite or virus in culture. Format: cell-based, Staphylococcus aureus.
Text: as §1, §2

Assay [17] relates to S. aureus 5159. The assay can be described thus: microbe, parasite or virus in culture. Format: cell-based, Staphylococcus aureus.
Text: as §1, §2

The subject of assay [18] is S. aureus 1630. Briefly: microbe, parasite or virus in culture. In kind it is cell-based, Staphylococcus aureus.
Text: as §1, §2

For assay [19], the system named is S. aureus 5156. Briefly: microbe, parasite or virus in culture. Format: cell-based, Staphylococcus aureus.
Text: as §1, §2

For assay [20], the system named is S. aureus 3518. The assay can be described thus: microbe, parasite or virus in culture. Format: cell-based, Staphylococcus aureus.
Text: as §1, §2

For assay [21], the system named is S. aureus 3511. The assay can be described thus: microbe, parasite or virus in culture. Format: cell-based, Staphylococcus aureus.
Text: as §1, §2

Assay [22] deals with S. aureus 1870. Briefly: microbe, parasite or virus in culture. In kind it is cell-based, Staphylococcus aureus.
Text: as §1, §2

The subject of assay [23] is P. aeruginosa ATCC 15692. Format: cell-based, Pseudomonas aeruginosa.
Text: as §1, with “E. coli ATCC 25922 (LB media), P. aeruginosa ATCC 15692 (NB+0.5% NaCl media), Listeria monocytogenes ATCC 3710 (LB media), Staphylococcus epidermidis ATCC 12228 (LB media), and S. aureus ATCC 29213 (TSB media) were obtained from the American Type Culture Collection (Manassas, VA, USA).” left out
as §2, with “Bacterial cells were cultured at 37° C in appropriate culture media at pH 5.5 or pH 7.4 until collection during the mid-log phase and suspended in 10 mM sodium phosphate buffer (pH 5.5 or pH 7.4) supplemented with 10% culture medium.” left out

The test system of assay [24] is E. coli CCARM1238. Briefly: microbe, parasite or virus in culture. In kind it is cell-based, Escherichia coli.
Text: as §1, §2

Results on one molecule are retold here after paper PMC5884652, “New antimicrobial peptide kills drug-resistant pathogens without detectable resistance” (Oncotarget, 2018).

≈ marks a conversion by molar mass, not a printed value.

Turning to `CC[C@H](C)[C@H](NC(=O)CN)C(=O)NCC(=O)N[C@@H](C)C(=O)N[C@H](C(=O)N[C@@H](CC(C)C)C(=O)N[C@@H](CCCCN)C(=O)N[C@H](C(=O)N[C@@H](CC(C)C)C(=O)N[C@H](C(=O)N[C@H](C(=O)NCC(=O)N[C@@H](CC(C)C)C(=O)N1CCC[C@H]1C(=O)N[C@@H](C)C(=O)N[C@@H](CC(C)C)C(=O)N[C@H](C(=O)N[C@@H](CO)C(=O)N[C@@H](Cc1c[nH]c2ccccc12)C(=O)N[C@H](C(=O)N[C@@H](CCCCN)C(=O)N[C@@H](CCCNC(=N)N)C(=O)N[C@@H](CCCCN)C(=O)N[C@@H](CCCNC(=N)N)C(=O)N[C@@H](CCC(N)=O)C(=O)N[C@@H](CCC(N)=O)C(N)=O)[C@@H](C)CC)[C@@H](C)CC)[C@@H](C)O)[C@@H](C)O)C(C)C)C(C)C` [Melittin], the MIC in assay [1] was 2 µM (≈ 5.69 µg/mL); in [2], 2 µM (≈ 5.69 µg/mL); in [3], 2 µM (≈ 5.69 µg/mL); in assay [4], 2 µM (≈ 5.69 µg/mL); in assay [10], 2 µM (≈ 5.69 µg/mL); in assay [11], 4 µM (≈ 11.4 µg/mL). The MIC in assay [12] amounted to 2 µM (≈ 5.69 µg/mL); in [13], 4 µM (≈ 11.4 µg/mL); in assay [14] it was 2 µM (≈ 5.69 µg/mL); in [15] it was 2 µM (≈ 5.69 µg/mL); in assay [16], 4 µM (≈ 11.4 µg/mL); in [17] it was 8 µM (≈ 22.8 µg/mL). In addition, the MIC worked out at 4 µM (≈ 11.4 µg/mL) in [18]; 4 µM (≈ 11.4 µg/mL) in assay [19]; 4 µM (≈ 11.4 µg/mL) in [20]; 4 µM (≈ 11.4 µg/mL) in assay [21]; 4 µM (≈ 11.4 µg/mL) in assay [22]; 2 µM (≈ 5.69 µg/mL) in assay [24]. In addition, in assay [5], the “MIC, S. epidermidis” value was determined as 2 µM (≈ 5.69 µg/mL). Besides, the “MIC, L. monocytogenes” value in assay [6] was 2 µM (≈ 5.69 µg/mL). Besides, the “MIC, B. subtilis” value in [7] came to 2 µM (≈ 5.69 µg/mL). Besides, the “MIC, P. vulgaris” value in [8] is 2 µM (≈ 5.69 µg/mL). Besides, the “MIC, S. typhimurium” value in assay [9] worked out at 2 µM (≈ 5.69 µg/mL). Also, in assay [23], the “MIC, P. aeruginosa” value is 2 µM (≈ 5.69 µg/mL).
